Measurements published in patent US20210221822A1, “TRICYCLIC DERIVATIVES INHIBITOR, PREPARATION METHOD, AND APPLICATIONS THEREOF” (Jiangsu Hansoh Pharmaceutical Group Co., Ltd., priority 2018, published 2021).

Tests used:
PI3Kα = target: T1, PI3Kα (Homo sapiens, UniProt P42336); assay: ADP-Glo lipid kinase assay, PI3Kα kinase activity; assay type: biochemical
T1 construct: purchased Promega V1721
Summary of the method: (§1)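 ADP-Glo luminescence measured ADP formed by PI3Kα, β, γ or δ (0.1-2 nM working solution) with PIP2:3PS (50 μM added solution) and ATP in HEPES/MgCl2/NaCl/BSA buffer, 90 to 120 min at room temperature. % inhibition was set against DMSO and no-kinase controls, and IC50 came from a four-parameter fit.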

PI3Kδ = target: T2, PI3Kδ (Homo sapiens, UniProt O00329); assay: ADP-Glo lipid kinase assay, PI3Kδ kinase activity; assay type: biochemical; settings: 0.1 nM enzyme, 90 min, 100 μM ATP
T2 construct: purchased Carna 11-103
Summary of the method: as §1

[1] = Pharmacokinetic (PK) assay in mice; assay type: in vivo; settings: male, Balb/c, mouse, plasma, po, single intragastric 5 mg/kg
Summary of the method: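 Male Balb/c mice received a single intragastric dose of 5 mg/10 ml/kg in 0.5% CMC-Na. Orbital blood was taken at 0.5, 1, 2, 4, 6, 8 and 24 h into K2-EDTA; plasma was acetonitrile-precipitated and analyzed by LC-MS/MS, and PK parameters were calculated.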

[2] = tested on: PI3Kα mutant cancer cells HCC1954 (H1047R); assay: Cell Titer-Glo proliferation inhibition, HCC1954; assay type: cell-based; settings: Homo sapiens, 48 to 96 hours
Procedure: Experimental method: The proliferation inhibitory effect of the compounds of the examples on PI3Kα mutant cancer cell lines HCC1954, HGC-27 and MKN1 was determined by Cell Titer-Glo method. The cell lines were cultured in RPMI 1640 medium (Gibco #22400089) containing 10% FBS (Gibco #10091148) and 1% P/S (Hyclone #SV30010) at 37° C. and 5% CO2. Before the experiment, the cells were collected and counted, and then the cell density was adjusted. The cells were inoculated in a white 96-well plate (Corning #3610) at a density of 1000 to 10000 cells/well, and incubated in an incubator at 37° C., 5% CO2 overnight. The compound solution of different concentrations was added, and corresponding vehicle control was set at the same time. The cell plate was further incubated in an incubator at 37° C., 5% CO2 for 48 to 96 hours. The cell plate and its content were equilibrated to room temperature. 20 to 100 μL of Cell Titer-Glo solution (Promega #G7573) was added to each well, and the plate was shaked well and incubated at room temperature in the dark for 5 to 30 minutes. The chemiluminescence value was measured by the BioTek SynergyH1 microplate reader.
The percentage inhibition data of the well treated by the compounds of the examples was calculated through the vehicle control well on the plate {% inhibition rate=100−(test compound value/vehicle control value)×100}. The IC50 value was calculated by fitting the data of different concentrations and corresponding percentage inhibition rates to a four-parameter nonlinear logic formula with GraphPad prism.

PI3Kγ = target: T3, PI3Kγ (Homo sapiens, UniProt P48736); assay: ADP-Glo lipid kinase assay, PI3Kγ kinase activity; assay type: biochemical; settings: 0.4 nM enzyme, 120 min, 50 μM ATP
T3 construct: purchased Thermofisher PV4786
Summary of the method: as §1

T1 sequence (P42336 whole entry): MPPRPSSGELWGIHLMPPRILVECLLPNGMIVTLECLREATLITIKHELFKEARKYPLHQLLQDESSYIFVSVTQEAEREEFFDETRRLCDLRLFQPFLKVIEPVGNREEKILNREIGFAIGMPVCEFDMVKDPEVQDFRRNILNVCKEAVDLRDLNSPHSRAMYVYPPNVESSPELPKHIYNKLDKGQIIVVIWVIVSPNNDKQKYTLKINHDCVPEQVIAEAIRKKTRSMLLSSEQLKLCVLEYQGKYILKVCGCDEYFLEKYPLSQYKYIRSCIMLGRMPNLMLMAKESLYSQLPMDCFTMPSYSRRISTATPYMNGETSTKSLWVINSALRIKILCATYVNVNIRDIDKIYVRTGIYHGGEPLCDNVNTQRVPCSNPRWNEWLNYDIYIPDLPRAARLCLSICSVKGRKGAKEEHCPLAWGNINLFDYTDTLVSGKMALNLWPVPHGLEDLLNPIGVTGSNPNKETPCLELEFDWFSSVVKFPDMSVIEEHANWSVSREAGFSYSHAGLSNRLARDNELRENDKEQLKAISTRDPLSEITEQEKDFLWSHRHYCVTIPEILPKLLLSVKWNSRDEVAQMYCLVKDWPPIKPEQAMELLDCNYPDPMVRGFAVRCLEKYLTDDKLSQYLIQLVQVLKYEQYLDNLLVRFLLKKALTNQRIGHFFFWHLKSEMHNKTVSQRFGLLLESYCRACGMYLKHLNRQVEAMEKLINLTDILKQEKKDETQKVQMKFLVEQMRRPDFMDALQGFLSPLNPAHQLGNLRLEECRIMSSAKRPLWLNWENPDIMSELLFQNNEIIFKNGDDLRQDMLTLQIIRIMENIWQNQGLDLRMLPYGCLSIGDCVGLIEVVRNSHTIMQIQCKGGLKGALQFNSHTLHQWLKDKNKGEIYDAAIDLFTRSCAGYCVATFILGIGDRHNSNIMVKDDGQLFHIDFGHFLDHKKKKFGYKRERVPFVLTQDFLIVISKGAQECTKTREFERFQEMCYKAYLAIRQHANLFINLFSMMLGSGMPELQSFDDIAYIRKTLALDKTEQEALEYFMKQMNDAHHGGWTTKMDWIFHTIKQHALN
T1 sequence (P27986 whole entry partner): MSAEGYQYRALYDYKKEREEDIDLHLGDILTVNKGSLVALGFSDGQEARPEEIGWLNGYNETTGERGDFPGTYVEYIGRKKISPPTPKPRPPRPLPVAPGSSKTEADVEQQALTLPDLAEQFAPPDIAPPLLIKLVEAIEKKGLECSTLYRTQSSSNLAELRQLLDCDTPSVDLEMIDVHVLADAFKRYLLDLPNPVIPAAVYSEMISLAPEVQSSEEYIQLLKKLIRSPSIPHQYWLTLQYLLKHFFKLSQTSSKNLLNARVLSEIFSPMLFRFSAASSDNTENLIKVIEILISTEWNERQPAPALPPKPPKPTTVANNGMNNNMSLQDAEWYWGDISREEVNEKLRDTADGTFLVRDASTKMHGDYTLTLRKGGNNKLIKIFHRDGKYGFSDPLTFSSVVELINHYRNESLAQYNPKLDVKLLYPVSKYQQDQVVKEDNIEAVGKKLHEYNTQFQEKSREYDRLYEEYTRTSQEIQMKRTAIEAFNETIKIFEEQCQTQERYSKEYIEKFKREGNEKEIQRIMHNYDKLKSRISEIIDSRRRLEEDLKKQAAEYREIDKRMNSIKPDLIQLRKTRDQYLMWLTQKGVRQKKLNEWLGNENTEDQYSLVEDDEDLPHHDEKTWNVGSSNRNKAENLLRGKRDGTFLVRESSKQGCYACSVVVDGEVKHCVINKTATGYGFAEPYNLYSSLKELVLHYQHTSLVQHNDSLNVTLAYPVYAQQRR
T2 sequence (O00329 whole entry): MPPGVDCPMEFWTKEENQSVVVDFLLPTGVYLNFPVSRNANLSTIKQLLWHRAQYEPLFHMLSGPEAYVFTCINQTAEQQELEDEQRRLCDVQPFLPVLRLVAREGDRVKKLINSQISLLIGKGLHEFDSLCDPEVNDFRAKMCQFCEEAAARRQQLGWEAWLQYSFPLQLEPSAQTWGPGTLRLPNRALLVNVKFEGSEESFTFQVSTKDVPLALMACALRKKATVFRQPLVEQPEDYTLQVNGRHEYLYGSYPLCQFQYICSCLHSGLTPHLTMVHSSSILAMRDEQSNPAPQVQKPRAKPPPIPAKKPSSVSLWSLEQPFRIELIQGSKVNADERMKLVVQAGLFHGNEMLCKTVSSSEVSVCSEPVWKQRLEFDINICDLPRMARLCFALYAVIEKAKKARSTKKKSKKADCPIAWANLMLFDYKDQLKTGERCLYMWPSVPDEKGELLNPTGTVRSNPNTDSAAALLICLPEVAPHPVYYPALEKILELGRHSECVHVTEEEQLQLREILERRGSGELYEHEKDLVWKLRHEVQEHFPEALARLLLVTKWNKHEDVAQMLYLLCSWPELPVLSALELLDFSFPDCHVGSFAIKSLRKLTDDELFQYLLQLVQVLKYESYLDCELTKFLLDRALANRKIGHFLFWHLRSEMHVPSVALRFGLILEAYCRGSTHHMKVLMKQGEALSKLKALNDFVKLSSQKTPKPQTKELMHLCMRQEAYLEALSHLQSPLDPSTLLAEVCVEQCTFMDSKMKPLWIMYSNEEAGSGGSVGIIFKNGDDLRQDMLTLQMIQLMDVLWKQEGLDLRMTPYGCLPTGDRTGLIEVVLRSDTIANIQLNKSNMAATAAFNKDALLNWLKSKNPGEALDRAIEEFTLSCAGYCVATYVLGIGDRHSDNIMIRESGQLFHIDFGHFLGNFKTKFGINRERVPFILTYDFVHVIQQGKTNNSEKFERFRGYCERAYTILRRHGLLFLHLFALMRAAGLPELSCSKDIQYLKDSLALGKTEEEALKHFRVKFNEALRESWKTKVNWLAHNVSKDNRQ
T2 sequence (P27986 whole entry partner): as the sequence (P27986 whole entry partner) above
T3 sequence (P48736 whole entry): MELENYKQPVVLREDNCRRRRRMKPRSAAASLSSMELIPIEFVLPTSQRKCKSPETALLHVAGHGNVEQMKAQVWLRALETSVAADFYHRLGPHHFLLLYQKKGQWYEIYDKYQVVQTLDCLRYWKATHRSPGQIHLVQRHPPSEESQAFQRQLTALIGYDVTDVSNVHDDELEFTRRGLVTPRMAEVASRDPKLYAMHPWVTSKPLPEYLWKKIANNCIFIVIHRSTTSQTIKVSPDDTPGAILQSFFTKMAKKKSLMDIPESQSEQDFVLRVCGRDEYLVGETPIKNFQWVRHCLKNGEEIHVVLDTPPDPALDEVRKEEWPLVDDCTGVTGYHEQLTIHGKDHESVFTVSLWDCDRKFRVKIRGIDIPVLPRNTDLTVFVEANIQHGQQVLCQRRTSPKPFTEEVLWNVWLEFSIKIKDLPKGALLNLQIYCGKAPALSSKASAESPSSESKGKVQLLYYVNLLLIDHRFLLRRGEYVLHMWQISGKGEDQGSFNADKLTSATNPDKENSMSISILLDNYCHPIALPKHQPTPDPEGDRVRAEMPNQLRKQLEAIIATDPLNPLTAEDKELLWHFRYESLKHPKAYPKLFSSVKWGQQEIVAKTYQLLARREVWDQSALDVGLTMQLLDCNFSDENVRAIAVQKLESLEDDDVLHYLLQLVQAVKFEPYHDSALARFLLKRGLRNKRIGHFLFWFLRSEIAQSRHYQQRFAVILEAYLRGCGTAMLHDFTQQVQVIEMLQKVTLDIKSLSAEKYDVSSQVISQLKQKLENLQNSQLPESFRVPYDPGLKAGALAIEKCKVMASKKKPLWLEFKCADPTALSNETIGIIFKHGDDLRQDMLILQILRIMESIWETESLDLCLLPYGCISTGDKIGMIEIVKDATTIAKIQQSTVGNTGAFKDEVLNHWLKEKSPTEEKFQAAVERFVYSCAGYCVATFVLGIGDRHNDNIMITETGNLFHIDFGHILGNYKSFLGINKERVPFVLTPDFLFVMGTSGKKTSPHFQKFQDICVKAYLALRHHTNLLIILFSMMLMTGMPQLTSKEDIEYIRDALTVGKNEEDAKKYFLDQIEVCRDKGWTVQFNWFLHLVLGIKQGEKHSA

- IC50 (PI3Kα; ADP-Glo, 0.1 nM enzyme, 120 min, 50 μM ATP): 0.38 nM
- Selectivity of PI3Kα vs PI3Kβ (PI3Kα; ratio of IC50 PI3Kβ to IC50 PI3Kα): 521
- Selectivity of PI3Kα vs PI3Kγ (PI3Kα; ratio of IC50 PI3Kγ to IC50 PI3Kα): 208
- Selectivity of PI3Kα vs PI3Kδ (PI3Kα; ratio of IC50 PI3Kδ to IC50 PI3Kα): 63
- IC50 (PI3Kδ): 24 nM
- AUC(0-t) ([1]; read-out: Area under curve AUC0-t): 1320 ng·h/mL
- AUC(0-inf) ([1]; read-out: Area under curve AUC0-∞): 1340 ng·h/mL
- half-life ([1]; read-out: Half-life t1/2(h) (converted)): 1.6 h
- MRT ([1]; read-out: Mean residence time MRT): 1.8 h
- Tmax ([1]; read-out: Peak time tmax): 0.5 h
- Cmax ([1]; read-out: Plasma concentration Cmax): 641 ng/mL
- IC50 [2]: 70 nM
- IC50 (PI3Kγ): 79 nM
SMILES: C[C@H](Nc1ccc2c(c1)OCCn1cc(N3C(=O)COC[C@H]3C(F)F)nc1-2)C(N)=O [Example 68, (S)-2-((2-((S)-3-(difluoromethyl)-5-oxomorpholino)-5,6-dihydrobenzo[f]imidazo[1,2-d][1,4]oxazepin-9-yl)amino)propanamide]
